Source: the NIST ThermoML archive (doi:10.1021/je100148h)
Where “and” joins values, the source holds several entries; their conditions need not be identical. Identical values can stand only once.

Conditions: Burnett expansion method

[Ar] [argon]
Gas
Conditions	mass density
318.75 K, 217.45 kPa	3.2819 kg/m3 and 3.2809 kg/m3
318.75 K, 299.59 kPa	4.5227 kg/m3 and 4.5217 kg/m3
318.75 K, 412.69 kPa	6.2318 kg/m3 and 6.2327 kg/m3
318.75 K, 568.39 kPa	8.5885 kg/m3 and 8.5891 kg/m3
318.75 K, 782.65 kPa	11.8364 kg/m3 and 11.8363 kg/m3
318.75 K, 1077.3 kPa	16.3128 kg/m3 and 16.3112 kg/m3
318.75 K, 2800.7 kPa	42.6996 kg/m3 and 42.685 kg/m3
318.75 K, 3845.5 kPa	58.8449 kg/m3 and 58.8199 kg/m3
318.75 K, 5275.1 kPa	81.0918 kg/m3 and 81.0507 kg/m3
318.75 K, 7231.5 kPa	111.747 kg/m3 and 111.681 kg/m3
318.76 K, 157.82 kPa	2.3805 kg/m3 and 2.3815 kg/m3
318.76 K, 1482.3 kPa	22.4815 kg/m3 and 22.4774 kg/m3
318.76 K, 2038.2 kPa	30.9829 kg/m3 and 30.9748 kg/m3

O=C=O [carbon dioxide]
343.13 K, Fluid (supercritical or subcritical phases)
Conditions	mass density
214.49 kPa	3.3311 kg/m3 and 3.3345 kg/m3
295.01 kPa	4.5929 kg/m3 and 4.5951 kg/m3
405.34 kPa	6.3329 kg/m3 and 6.3325 kg/m3
556.21 kPa	8.7319 kg/m3 and 8.7265 kg/m3
761.77 kPa	12.0399 kg/m3 and 12.0258 kg/m3
1040.8 kPa	16.6004 kg/m3 and 16.5719 kg/m3
1417 kPa	22.8886 kg/m3 and 22.8367 kg/m3
1919.8 kPa	31.5581 kg/m3 and 31.4693 kg/m3
2584.2 kPa	43.5107 kg/m3 and 43.3646 kg/m3
3447.3 kPa	59.9881 kg/m3 and 59.7539 kg/m3
4543 kPa	82.704 kg/m3 and 82.3364 kg/m3
5888.2 kPa	114.017 kg/m3 and 113.448 kg/m3
7469.2 kPa	157.178 kg/m3 and 156.31 kg/m3
